Results published in US7192906B2, “Substituted pyrazole derivatives, production process thereof, and herbicide compositions containing the derivatives” (SDS Biotech K.K., priority 2001, dated 2007).

What was measured:
Format in all cases: in vivo
Stellaria media [1] = experiment: Test Example 1 upland field foliage treatment; settings: Table 4, upland field foliage treatment, index 0-5
Description: (§1) A plastic pot of 130 cm^2 was filled with upland soil. Subsequently, weed seeds of Setaria viridis, Digitaria adscendens, Chenopodium album and Stellaria media, and crop seeds of soybean (Glycine max) and wheat (Triticum aestivum), were sowed and covered with soil of about 1 cm thickness. On the 14th day after the sowing, the wettable powder prepared in Formulation Example 1 was diluted with water such that the amount of the active ingredient became 1 kg per hectare, and then uniformly applied to the plant leaf surfaces. On the 21st day after the application, observation and evaluation were carried out according to the criteria described below.
(§2) Herbicidal activity was evaluated based on the following criteria.
(§3) • 5: herbicidal effect of not less than 90%, or phytotoxicity of 90% or more • 4: herbicidal effect of not less than 70% and less than 90%, or phytotoxicity of 70% or more and less than 90% • 3: herbicidal effect of not less than 50% and less than 70%, or phytotoxicity of 50% or more and less than 70% • 2: herbicidal effect of not less than 30% and less than 50%, or phytotoxicity of 30% or more and less than 50% • 1: herbicidal effect of not less than 10% and less than 30%, or phytotoxicity of 10% or more and less than 30% • 0: herbicidal effect of not less than 0% and less than 10%, or phytotoxicity of 0% or more and less than 10%

Chenopodium album [2] = experiment: Test Example 1 upland field foliage treatment; settings: Table 4, upland field foliage treatment, index 0-5
Description: as §1, §2, §3

Digitaria adscendens [3] = experiment: Test Example 1 upland field foliage treatment; settings: Table 4, upland field foliage treatment, index 0-5
Description: as §1, §2, §3

Setaria viridis [4] = experiment: Test Example 1 upland field foliage treatment; settings: Table 4, upland field foliage treatment, index 0-5
Description: as §1, §2, §3

Stellaria media [5] = experiment: Test Example 2 upland soil treatment; settings: Table 5, upland soil treatment, index 0-5
Description: as §1, with “next” for “14th”, “soil surface.” for “plant leaf surfaces.”, “aforesaid criteria.” for “criteria described below.”
as §2, §3

Chenopodium album [6] = experiment: Test Example 2 upland soil treatment; settings: Table 5, upland soil treatment, index 0-5
Description: as §1, with “next” for “14th”, “soil surface.” for “plant leaf surfaces.”, “aforesaid criteria.” for “criteria described below.”
as §2, §3

Digitaria adscendens [7] = experiment: Test Example 2 upland soil treatment; settings: Table 5, upland soil treatment, index 0-5
Description: as §1, with “next” for “14th”, “soil surface.” for “plant leaf surfaces.”, “aforesaid criteria.” for “criteria described below.”
as §2, §3

Setaria viridis [8] = experiment: Test Example 2 upland soil treatment; settings: Table 5, upland soil treatment, index 0-5
Description: as §1, with “next” for “14th”, “soil surface.” for “plant leaf surfaces.”, “aforesaid criteria.” for “criteria described below.”
as §2, §3

[9] = tested on: wheat (Triticum aestivum); experiment: Test Example 2 upland soil treatment, crop phytotoxicity; settings: Table 5, upland soil treatment, index 0-5
Description: as §1, with “next” for “14th”, “soil surface.” for “plant leaf surfaces.”, “aforesaid criteria.” for “criteria described below.”
as §2, §3

soybean (Glycine max) [10] = experiment: as above; settings: Table 5, upland soil treatment, index 0-5
Description: as §1, with “next” for “14th”, “soil surface.” for “plant leaf surfaces.”, “aforesaid criteria.” for “criteria described below.”
as §2, §3

[11] = tested on: wheat (Triticum aestivum); experiment: Test Example 1 upland field foliage treatment, crop phytotoxicity; settings: Table 4, upland field foliage treatment, index 0-5
Description: as §1, §2, §3

soybean (Glycine max) [12] = experiment: as above; settings: Table 4, upland field foliage treatment, index 0-5
Description: as §1, §2, §3

Row | SMILES | Herbicidal activity SM: Stellaria media (Stellaria media [1]) | Herbicidal activity CA: Chenopodium album (Chenopodium album [2]) | Herbicidal activity DA: Digitaria adscendens (Digitaria adscendens [3]) | Herbicidal activity SV: Setaria viridis (Setaria viridis [4]) | Herbicidal activity SM: Stellaria media (Stellaria media [5]) | Herbicidal activity CA: Chenopodium album (Chenopodium album [6]) | Herbicidal activity DA: Digitaria adscendens (Digitaria adscendens [7]) | Herbicidal activity SV: Setaria viridis (Setaria viridis [8]) | Herbicidal activity (phytotoxicity) TA: Wheat (Triticum aestivum) [9] | Herbicidal activity (phytotoxicity) GM: Soybean (Glycine max) (soybean (Glycine max) [10]) | Herbicidal activity (phytotoxicity) TA: Wheat (Triticum aestivum) [11] | Herbicidal activity (phytotoxicity) GM: Soybean (Glycine max) (soybean (Glycine max) [12])
1 | CCOC(CNC(=O)C(Cn1cc(C)c(-c2ccccc2)n1)=NOC)OCC [Compound 28] | 3 (herbicidal effect of not less than 50% and less than 70%, or phytotoxicity of 50% or more and less than 70%) | 4 (herbicidal effect of not less than 70% and less than 90%, or phytotoxicity of 70% or more and less than 90%) | 3 (herbicidal effect of not less than 50% and less than 70%, or phytotoxicity of 50% or more and less than 70%) | 3 (herbicidal effect of not less than 50% and less than 70%, or phytotoxicity of 50% or more and less than 70%) | 3 (herbicidal effect of not less than 50% and less than 70%, or phytotoxicity of 50% or more and less than 70%) | 4 (herbicidal effect of not less than 70% and less than 90%, or phytotoxicity of 70% or more and less than 90%) | 4 (herbicidal effect of not less than 70% and less than 90%, or phytotoxicity of 70% or more and less than 90%) | 3 (herbicidal effect of not less than 50% and less than 70%, or phytotoxicity of 50% or more and less than 70%) | 0 (herbicidal effect of not less than 0% and less than 10%, or phytotoxicity of 0% or more and less than 10%) | 0 (herbicidal effect of not less than 0% and less than 10%, or phytotoxicity of 0% or more and less than 10%) | 0 (herbicidal effect of not less than 0% and less than 10%, or phytotoxicity of 0% or more and less than 10%) | 0 (herbicidal effect of not less than 0% and less than 10%, or phytotoxicity of 0% or more and less than 10%)
2 | CNC(=O)C(Cn1cc(C)c(-c2cccc(C)c2)n1)=NOC [Compound 36] | 4 (herbicidal effect of not less than 70% and less than 90%, or phytotoxicity of 70% or more and less than 90%) | 5 (herbicidal effect of not less than 90%, or phytotoxicity of 90% or more) | 5 (herbicidal effect of not less than 90%, or phytotoxicity of 90% or more) | 4 (herbicidal effect of not less than 70% and less than 90%, or phytotoxicity of 70% or more and less than 90%) | 5 (herbicidal effect of not less than 90%, or phytotoxicity of 90% or more) | 5 (herbicidal effect of not less than 90%, or phytotoxicity of 90% or more) | 4 (herbicidal effect of not less than 70% and less than 90%, or phytotoxicity of 70% or more and less than 90%) | 4 (herbicidal effect of not less than 70% and less than 90%, or phytotoxicity of 70% or more and less than 90%) | 0 (herbicidal effect of not less than 0% and less than 10%, or phytotoxicity of 0% or more and less than 10%) | 1 (herbicidal effect of not less than 10% and less than 30%, or phytotoxicity of 10% or more and less than 30%) | 0 (herbicidal effect of not less than 0% and less than 10%, or phytotoxicity of 0% or more and less than 10%) | 0 (herbicidal effect of not less than 0% and less than 10%, or phytotoxicity of 0% or more and less than 10%)
3 | CNC(=O)C(Cn1cc(C)c(-c2cccc(Cl)c2)n1)=NOC [Compound 46] | 5 (herbicidal effect of not less than 90%, or phytotoxicity of 90% or more) | 5 (herbicidal effect of not less than 90%, or phytotoxicity of 90% or more) | 5 (herbicidal effect of not less than 90%, or phytotoxicity of 90% or more) | 5 (herbicidal effect of not less than 90%, or phytotoxicity of 90% or more) | 5 (herbicidal effect of not less than 90%, or phytotoxicity of 90% or more) | 5 (herbicidal effect of not less than 90%, or phytotoxicity of 90% or more) | 5 (herbicidal effect of not less than 90%, or phytotoxicity of 90% or more) | 5 (herbicidal effect of not less than 90%, or phytotoxicity of 90% or more) | 0 (herbicidal effect of not less than 0% and less than 10%, or phytotoxicity of 0% or more and less than 10%) | 1 (herbicidal effect of not less than 10% and less than 30%, or phytotoxicity of 10% or more and less than 30%) | 0 (herbicidal effect of not less than 0% and less than 10%, or phytotoxicity of 0% or more and less than 10%) | 0 (herbicidal effect of not less than 0% and less than 10%, or phytotoxicity of 0% or more and less than 10%)
4 | CNC(=O)C(Cn1cc(C)c(-c2ccc(OCc3ccccc3)cc2)n1)=NOC [Compound 54] | 4 (herbicidal effect of not less than 70% and less than 90%, or phytotoxicity of 70% or more and less than 90%) | 4 (herbicidal effect of not less than 70% and less than 90%, or phytotoxicity of 70% or more and less than 90%) | 5 (herbicidal effect of not less than 90%, or phytotoxicity of 90% or more) | 4 (herbicidal effect of not less than 70% and less than 90%, or phytotoxicity of 70% or more and less than 90%) | 5 (herbicidal effect of not less than 90%, or phytotoxicity of 90% or more) | 5 (herbicidal effect of not less than 90%, or phytotoxicity of 90% or more) | 4 (herbicidal effect of not less than 70% and less than 90%, or phytotoxicity of 70% or more and less than 90%) | 3 (herbicidal effect of not less than 50% and less than 70%, or phytotoxicity of 50% or more and less than 70%) | 0 (herbicidal effect of not less than 0% and less than 10%, or phytotoxicity of 0% or more and less than 10%) | 0 (herbicidal effect of not less than 0% and less than 10%, or phytotoxicity of 0% or more and less than 10%) | 0 (herbicidal effect of not less than 0% and less than 10%, or phytotoxicity of 0% or more and less than 10%) | 0 (herbicidal effect of not less than 0% and less than 10%, or phytotoxicity of 0% or more and less than 10%)
